Laboratory results taken from US20200223839A1, “FLUORO-CONTAINING COMPOUNDS, USE AND PREPARATION THEREOF” (JIANGSU YINGKEBEITA YIYAOKEJI CO. LTD, priority 2017, published 2020).

Key:
BT474 = assay: Cell culture and cytotoxicity assay (CTG), BT474; type: cell-based; details: Homo sapiens, BT-474, BT474, exposure 96 hours
Procedure: (§1) The assayed compounds each was dissolved in DMSO with a final concentration of 10 mM or 40 mM and stored at −20° C. Tumor cell lines A549 (7,000 cells/well), BT474 (12,000 cells/well), MDA-MB-468 (12,000 cells/well), and HCC1937 (6,000 cells/well) were seeded on 96-well plates. And the cells were pre-incubated at 37° C./5% CO2 for 24 hours. The cells were exposed to different concentrations of the assay compounds (from 400 μM to 782 nM, from 200 μM to 391 nM, from 100 μM to 196 nM, and from 50 μM to 98 nM) for the following time:
(§2) After incubation, 100 μL from each well was discarded and CTG base (Proega, G7571, 50 μL) was added and the mixture was agitated for 2 minutes. The mixtures were stored in a dark room for 10 minutes and the viability was analyzed with Multiskan microplate reader.

MDA-MB-468 = assay: Cell culture and cytotoxicity assay (CTG), MDA-MB-468; type: cell-based, human; details: Homo sapiens; MDA-MB-468, exposure 72 hours, CTG
Procedure: as §1, §2

HCC1937 = assay: Cell culture and cytotoxicity assay (CTG), HCC1937; type: cell-based; details: Homo sapiens, HCC1937, exposure 72 hours
Procedure: as §1, §2

MDA-MB-468 cell line = assay: Anti-tumor activity against MDA-MB-468 cell line (CCK-8 test); type: cell-based; details: Homo sapiens, MDA-MB-468, 72 h
Procedure: A cryo tube was removed from liquid nitrogen. As quickly as possible, the cells were thawed by placing the vial in a 37° C. water bath and gently shaking the vials. The cells were transferred to medium tube, which containing 5 mL medium, and were centrifuged at 1000 rpm for 6 min. The supernatant containing dead cells and cell debris was discarded. 1 mL of pre-warmed medium with 10% FBS was add and the solution was re-suspended. The plate was placed in 37° C. and 5% CO2 incubator. The medium was changed next day.
Cells in logarithmic growth stage were taken and culture medium was discarded. 1 mL 0.25% trypsin solution was added for twice. The trypsin solution was removed and the 0.5 ml 0.25% trypsin solution was added to the cell flask. The plate was placed in 37° C. and 5% CO2 incubator for a few minutes until the cells recovered. 1 mL medium was added to stop digestion. The liquid was transferred by pipette for experiment.
the cells were suspended and the medium was discarded. 1 mL 0.25% trypsin solution was added for twice and the trypsin digestion was centrifuged. The cells were suspended with the culture medium, count and adjusted to the appropriate concentration.
The cell suspension was added to the 96-well plate with a volume of 100 uL per well, as shown in Tab. 5, and was placed in 37° C., 5% CO2 incubator overnight.
Preparation of Compounds Working Solution.
The test compounds were dissolved in DMSO at 10 mM with sterile filter (0.22 um, nelon, JET). After filtering, the solution were continuously diluted by three times with DMSO. A total of six concentration were prepared, as shown below.
6 uL compound solution was added to 594 uL medium and the solution was added to 96-well plate as shown and cultured for 72 h in CO2 incubator.
A CCK-8 solution was prepared according to the instructions and the 96-well plate was taken out and the original medium discarded. 100 uL cck-8 solution was added to each well in the 96-well plate. Photoabsorption data were read by TECAN enzyme marker after a period of time.
IC (%)=[Ac-As]/[Ac-Ab]*100% • As: Experimental well (containing culture medium, cell, CCK-8 and compound); • Ac: Controlled well (containing culture medium, cell and CCK-8); • Ab: Blank well (Only containing medium and CCK-8).

A549 = assay: Cell culture and cytotoxicity assay (CTG), A549; type: cell-based; details: Homo sapiens, A549, exposure 72 hours
Procedure: as §1, §2

[1] = test system: MDA-MB-468 cells (human breast cancer) implanted in BALB/c-nu mice; assay: In vivo xenograft study, MDA-MB-468, tumor sizes; details: MDA-MB-468 xenograft in BALB/c-nu mice, FIGS. 2 and 4
Procedure: (§3) MDA-MB-468 cells (human breast cancer) in its log growth phase were implanted in BALB/c-nu mice. When the tumor volume was approximately 50-150 mm^3, the mice were randomized into four groups, each include 8 mice. The four groups were treated with vehicle, Ref. 1, 4f, and Ref. 2, respectively, and the tumor sizes were measured two to three times each week and the mice were also weighted.

[2] = In vivo xenograft study, MDA-MB-468, mice weights; details: MDA-MB-468 xenograft in BALB/c-nu mice, FIGS. 3 and 5
Procedure: as §3

[3] = In vivo mouse model, MDA-MB-453, mice weights; details: MDA-MB-453 mouse model, FIG. 7, dose of this group not given
Source text: MDA-MB-453 cells (human breast cancer) were also studied in a mouse model. […] FIG. 7.

[4] = In vivo mouse model, Hep3B, mice weights; details: FIG. 9, dose of this group not given
Source text: Hep3B cells (human liver cancer) were also studied in a mouse model. […] FIG. 9.

IC50 (MDA-MB-468 cell line) | SMILES | IC50 (BT474) | IC50 (MDA-MB-468) | also measured
 | Cc1ccc(S(=O)(=O)Nc2nc3ccccc3nc2Nc2ccc3nsnc3c2)c(F)c1 [Compound 4, N-[3-(benzo[1,2,5]thiadiazol-5-ylamino)-quinoxalin-2-yl]-2-fluoro-4-methyl-benzenesulfonamide] | > 50000 nM | 4250 nM | IC50 (HCC1937): 114000 nM
469 nM | O=S(=O)(Nc1nc2ccccc2nc1Nc1ccc2nsnc2c1)c1ccc(F)c(F)c1 [Compound 7] |  |  | 
811 nM | O=S(=O)(Nc1nc2ccccc2nc1Nc1ccc2nsnc2c1)c1ccc(Br)c(F)c1 [Compound 8] |  |  | 
1400 nM | COc1ccc(S(=O)(=O)Nc2nc3ccccc3nc2Nc2ccc3nsnc3c2)cc1F [Compound 9] |  |  | 
7090 nM | CCNc1ccc(S(=O)(=O)Nc2nc3ccccc3nc2Nc2ccc3nsnc3c2)cc1F [Compound 10] |  |  | 
2670 nM | Cc1ccc(S(=O)(=O)Nc2nc3ccccc3nc2Nc2ccc3nsnc3c2)cc1 [Ref. 1, reference compound] | 28200 nM | 2060 nM | IC50 (A549): > 50000 nM; anticancer activity (tumor sizes) versus vehicle [1]: no significant difference; weight changes of mice [2]: no significant weight changes
4910 nM | COc1ccc(Cl)c(Nc2nc3ccccc3nc2NS(=O)(=O)c2cccc(NC(=O)C(C)(C)N)c2)c1 [Ref. 2, reference compound] | 25000 to 50000 nM | 12500 to 25000 nM | IC50 (A549): 25000 to 50000 nM; IC50 (HCC1937): 50000 to 100000 nM; anticancer activity (tumor sizes) versus vehicle [1]: no significant difference; weight changes of mice [2]: no significant weight changes; weight changes [3]: no difference in weight changes; weight changes [4]: no difference in weight changes
